Data as given in patent US20040063612A1, “Neuroprotective agents” (priority 2002, published 2004).

Columns and labels:
[1] = system: primary cortical neuron cultures; assay: Neuronal viability after oxidative stress (H2O2), crystal violet assay; type: cell-based, rat; details: pre-treatment one day prior to 40 mM H2O2
Method: Cell viability assays. […] Since the MTT assay measures both metabolic function (mitochondrial-based) and cell viability, a second method, the crystal violet assay, was used to assess cell density. For the crystal violet assay, the cells were rinsed in phosphate buffered saline (PBS) and stained for 10 minutes at room temperature with crystal violet solution (0.05% crystal violet, 2% formalin, 10% methanol). After extensive rinsing in tap water baths, the plates were dried and the dye eluted with 200 μl/well of PBS containing 1% SDS. The absorbance was measured at 595 nm using an automated ELISA reader.
High through-put screening with primary neuronal cell cultures. Primary neuronal cells were cultured in 96-well plates coated with collagen type IV or laminin.
Cerebral cortex tissue harvested from 16-18 day old rat fetuses (Sprague-Dawley) was incubated for 10 minutes in calcium-free and magnesium-free Hanks balanced salt solution (CMF-HBSS), followed by digestion in 0.25% trypsin/CMF-HBSS for 30 minutes at 37° C. […]
The cell viability was measured using the crystal violet assay one day after the oxidative injury. […]
Viability is expressed as percentage change relative to cultures treated only with the oxidant. […] Cell viability was measured using the crystal violet assay 1 day after the oxidative injury. […] Standard deviations calculated for 8 replicate cultures were <10%.

[2] = system: cerebral ischaemia; details: cited from earlier work

c1ccc(Nc2ccccc2)cc1 [Diphenylamine, diphenylamine]
increase in viability (in words) [1]: modest increase in viability | neuronal rescue (in words) [1]: less pronounced neuronal rescue

[Mg+2] [Mg, magnesium]
infarct volume reductions [2]: 25-61%
